Source: patent US6667337B2, “Combination therapy for cancer” (Cancer Research Technology Limited, priority 2000, dated 2003)

What was measured:
[1] = Host toxicity (lethality, body weight 4-5 days after drug treatment); assay type: in vivo, female C3H/HeN mice
Protocol: (§1) Murine mammary carcinoma MDAH—MCa-4 tumours were grown in female C3H/HeN mice from stocks stored in liquid nitrogen at the sixth transplant generation, and were passaged and used for experiments at the eighth transplant generation. Tumours for experiments were grown by inoculating 20 μl of cell suspension (5 mg packed cells) intramuscularly in the right gastrocenmius muscle. Animals were randomised to treatment groups, and treated with drugs when the dliameter of the tumour-bearing leg reached 10-11 mm (ca 0.6 g tumour), approximately 18 days after inoculation. […] Both compounds were administered essentially at the same time (within 1 min). Host toxicity was assessed by determination of lethality, and by measurement of body weight 4-5 days after drug treatment. The diameter of the tumour-bearing leg was measured three times weekly until values exceeded 13 mm (ca 1.4 g tumour) at which time the animals were terminated. The growth curve for each individual tumour was plotted as in FIG. 1, and the time-to-endpoint (TTE, time from treatment to endpoint) was determined for each mouse. The median and mean TTE was determined for each treatment group. The mean tumour growth delay for each group was calculated as the difference between mean TTE for treated and control groups. The statistical significance of the antitumour effects was tested using ANOVA followed by Dunnett's test to determine p values for the significance of differences between individual groups.

[2] = tested on: Murine mammary carcinoma MDAH-MCa-4 tumours; assay: Antitumour activity (tumour growth delay, cures) against MDAH-MCa-4 tumour; assay type: in vivo, female C3H/HeN mice; conditions: for Growth delay (days) Median: interim analysis
Protocol: as §1

[3] = DMXAA 80 μmol/kg alone, group 120/B
[4] = paclitaxel 23.7 μmol/kg alone, group 120/C

Compound	% Body weight change (d4-5) Mean [1, 3] [%]	Growth delay (days) Median [2, 3] [days]	% Body weight change (d4-5) Mean [1, 4] [%]	Number of mice Deaths ([1]; paclitaxel 23.7 μmol/kg alone, group 120/C, 7 mice treated, interim analysis)	host toxicity (in words) ([1]; paclitaxel alone, 42 μmol/kg)	Growth delay (days) Median [2, 4] [days]	antitumour activity (in words) ([2]; paclitaxel alone, up to 42 μmol/kg)
Cc1ccc2c(=O)c3cccc(CC(=O)O)c3oc2c1C [DMXAA, 5,6-dimethylxanthenone-4-acetic acid]	−6.0	17.9	–	–	–	–	–
CC(=O)O[C@H]1C(=O)[C@@]2(C)[C@H]([C@H](OC(=O)c3ccccc3)[C@]3(O)C[C@H](OC(=O)[C@H](O)[C@@H](NC(=O)c4ccccc4)c4ccccc4)C(C)=C1C3(C)C)[C@]1(OC(C)=O)CO[C@@H]1C[C@@H]2O [Paclitaxel, paclitaxel]	–	–	−0.1	1	not demonstrably toxic	3.5	little antitumour activity
